PMC3582512, “Application of a Novel Microtitre Plate-Based Assay for the Discovery of New Inhibitors of DNA Gyrase and DNA Topoisomerase VI” (PLoS ONE, 2013)
pIC50: −log10 of the molar value. Entries after “also recorded” stand apart in the source; their conditions may differ.

Key:
[1] = system: Arabidopsis thaliana columbia (Col-0); test: Arabidopsis hypocotyl extension assay and plant growth; type: in vivo
Experimental: The hypocotyl extension assay was conducted as previously described, [66]. MS Salts medium (containing micro and macro elements including vitamins, pH 5.8) was supplemented with 1 g/L sucrose and 0.7 g/L phytagel (Sigma) before autoclaving. After the medium cooled to ∼50°C it was divided into 50 mL aliquots and compounds to be tested (or an equivalent amount of appropriate solvent for control plates) then added at the desired concentration under aseptic conditions. The media were then poured into separate 100 mm square Petri dishes and allowed to cool to room temperature in a laminar flow hood. Arabidopsis thaliana columbia (Col-0) seeds were surface sterilised with 5% bleach for 10 min immediately prior to use. The seeds were then washed three times with sterile water under a laminar flow hood. After surface sterilisation the seeds were planted in a grid pattern (32 seeds per dish) and the dishes sealed with surgical tape. The plates were transferred to 4°C and left for 64 h in the dark to vernalise, after which they were transferred to a 22°C growth cabinet. After 2 h of light exposure the plates were stacked vertically in the dark at 22°C to allow for hypocotyl extension along the agar surface. After 4–5 days the hypocotyls were observed using an optical microscope and their length measured. For experiments where the plants were allowed to form rosettes, the Arabidopsis seedlings were grown horizontally under a 16 h day in a 22°C growth cabinet for the indicated number of weeks.

[2] = biological target: T1, M. mazei topo VI (Methanosarcina mazei, UniProt Q8PUB7+Q8PUB8); test: Pyruvate kinase-linked ATPase assay; type: biochemical; settings: data not shown
T1 construct: His tag; made in house
Experimental: ATPase assays were performed essentially as described previously except they were adapted to a microplate format using clear, colourless 96-well Microtitre plates (Pro-bind™, Becton Dickinson). Reactions were carried out in 100 µL of the established reaction buffer for either DNA gyrase of M. mazei topo VI [36], [62] supplemented with: 800 µM phosphoenolpyruvate (PEP), 400 µM NADH, 1% (vol/vol) PK/LDH (pyruvate kinase-lactate dehydrogenase mixture in 50% (w/v) glycerol,100 mM KCl, 10 mM HEPES (pH 7.0)) and the desired concentration of hit compound. ATP was initially withheld from the reaction. After 5 min incubation at room temperature the reactions were initiated by the addition of ATP and the absorbance at 340 nm was measured over the course of an hour using a Spectra Max Plus absorbance reader (Molecular Devices). Data were processed by omitting the first 10–15 min of collection and normalising the first retained time point. This was done to exclude artifacts observed within this time frame and for ease of comparison of rates. Controls lacking topoisomerase were used to assess the intrinsic ATPase activity of the test compounds.

[3] = biological target: T1, M. mazei topo VI; test: Agarose gel-based DNA relaxation assay; type: biochemical; settings: for pIC50: gel relaxation assay, 1 unit (50 nM) topo VI, read-out: Approx. IC50 against M. mazei topo VI
Experimental: (§1) The agarose gel-based assay was conducted as previously described, [44], [62]. In brief, topoisomerases were incubated with 0.5 µg of plasmid and the desired concentration of compound for 30 min at 37°C (for DNA gyrase and M. mazei topo VI) or 5 min at 75°C (for S. shibatae topo VI), in a total volume of 30 µL. […] Reactions were stopped by the addition of a loading buffer containing EDTA and the drug extracted by vortexing with either chloroform or aqueous butanol as required. In the case of M. mazei topo VI, it was necessary to include SDS in the loading buffer, at a final concentration of 1%. Samples were loaded onto a 1% agarose gel, run for the appropriate length of time and stained with ethidium bromide before visualisation on a UV transilluminator.

[4] = system: Arabidopsis thaliana hypocotyl cells; test: Cryo-SEM of Arabidopsis hypocotyls (cell size); type: in vivo; settings: 40 µM, 5 days in the dark; control ∼300 µm
Text: Five day old hypocotyls grown on media containing various concentrations of compound were frozen in nitrogen slush and loaded into a Philips XL30 SEM with a cryo stage installed. Samples were sputter coated with platinum and transferred into the microscope chamber for image collection.

[5] = biological target: T2, S. shibatae topo VI (Saccharolobus shibatae, UniProt O05207+O05208); test: Gel-based relaxation assay with S. shibatae topo VI; type: biochemical, Sulfolobus shibatae
T2 construct: gift from Danielle Gadelle (University of Paris XI, Orsay)
Experimental: as §1

[6] = biological target: T3, E. coli DNA gyrase (Escherichia coli, UniProt P0AES4+P0AES6); test: Native gel-shift assay, gyrase binding to 147 bp DNA fragment; settings: 100 µM
T3 construct: made in house
Experimental: (§2) In order to test the effects of hit compounds upon DNA binding by topoisomerases, samples of enzyme and drug were prepared under the following conditions in a final volume of 10 μL: 1 nM 147 bp linear fragment of DNA derived from pBR322, [82] 50 mM Tris•HCl (pH 7.5), 100 mM KCl, 5 mM MgCl2, 2 mM DTT, 10% w/v glycerol. Samples were incubated for 30 min at room temperature before being run on a 5% (29:1) Protogel acrylamide (National Diagnostics) gel in 90 mM Tris·Borate, 5 mM MgCl2 at 150 V for 45 min. The DNA was stained by soaking in 2 µg/mL ethidium bromide for 10 min and visualised under UV light.

[7] = biological target: T3, E. coli DNA gyrase; test: Protection from Ca2+-induced, gyrase-mediated DNA cleavage; type: biochemical; settings: 80 µM, 4 mM calcium chloride
Experimental: (§3) Assays to detect the stabilisation of cleavage complexes were identical to the protocol for topoisomerase activity detailed above, except as follows. Cleavage experiments with DNA gyrase were carried out in the absence of ATP and spermidine and 30 µL reactions were stopped with 3 µL 10% SDS and incubated with 3 µL 1 mg/mL proteinase K solution at 37°C for 1 h. For cleavage complex protection assays with suramin, the reaction buffer was modified to contain 4 mM CaCl2 rather than MgCl2.

[8] = biological target: T3, E. coli DNA gyrase; test: Agarose gel-based DNA supercoiling assay; type: biochemical
Experimental: as §1

[9] = system: E. coli strain NR698; test: Bacterial growth inhibition, membrane-permeable strain; type: cell-based, Escherichia coli; settings: liquid and solid media
Experimental: (§4) For E. coli work, 10 mL cultures of E. coli MG1655 or NR698 were grown overnight at 37°C in LB medium. A 100 µL sample was then added to 10 mL of LB medium containing the desired concentration of compound. The culture was then allowed to grow at 37°C for 5 h and its OD600 measured every hour. For M. smegmatis, a 50 mL culture was grown for 48 h in Middlebrooks 7H11 medium at 37°C. A 100 µL sample was then added to 10 mL of Middlebrooks 7H11 containing the desired concentration of compound. The culture was then allowed to grow at 37°C for 9 h and its OD600 measured every three hours. For colony counting experiments M. smegmatis was grown for 48 h in 50 mL of Middlebrooks 7H9 medium at 37°C. A 100 µL sample was then added to 10 mL of Middlebrooks 7H9 medium containing the desired concentration test compound and allowed to grow at 37°C overnight. After 16 h, 20 µL samples were taken from these cultures and diluted 1 in 10,000 with Middlebrooks 7H9 medium. Petri dishes containing Middlebrooks 7H11 agar were prepared and 100 µL of each diluted culture was spread out. The plates were subsequently stored at 4°C. This was repeated every three hours for six hours, after which the plates were transferred to 37°C for 48 h. The numbers of colonies for each time point were counted manually.

[10] = biological target: T1, M. mazei topo VI; test: Native gel shift assay, topo VI binding to 147 bp DNA fragment
Experimental: as §2

[11] = biological target: T3, E. coli DNA gyrase; test: Gel-based gyrase-mediated DNA cleavage assay; type: biochemical; settings: absence of ATP, concentration not given
Experimental: as §3

[12] = system: E. coli MG1655; test: Bacterial growth inhibition; type: cell-based, Escherichia coli; settings: liquid and solid media
Experimental: as §4

[13] = system: M. smegmatis mc^2155; test: Bacterial growth inhibition and colony counting; type: cell-based, Mycobacterium smegmatis
Experimental: as §4

T2 sequence (O05207 whole entry): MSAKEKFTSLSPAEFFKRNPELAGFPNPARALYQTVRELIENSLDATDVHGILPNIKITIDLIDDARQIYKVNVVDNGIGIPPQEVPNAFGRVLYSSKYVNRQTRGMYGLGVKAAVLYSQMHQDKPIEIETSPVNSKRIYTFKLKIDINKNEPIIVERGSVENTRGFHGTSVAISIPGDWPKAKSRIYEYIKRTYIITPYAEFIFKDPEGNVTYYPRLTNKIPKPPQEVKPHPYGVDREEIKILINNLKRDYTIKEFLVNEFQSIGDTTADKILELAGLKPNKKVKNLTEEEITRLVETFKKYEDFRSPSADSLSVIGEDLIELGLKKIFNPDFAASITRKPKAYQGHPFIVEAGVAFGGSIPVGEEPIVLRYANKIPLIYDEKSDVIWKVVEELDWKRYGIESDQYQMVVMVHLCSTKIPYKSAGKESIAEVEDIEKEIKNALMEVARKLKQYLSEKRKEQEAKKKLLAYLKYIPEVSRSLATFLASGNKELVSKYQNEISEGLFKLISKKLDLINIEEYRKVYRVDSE
T2 sequence (O05208 whole entry): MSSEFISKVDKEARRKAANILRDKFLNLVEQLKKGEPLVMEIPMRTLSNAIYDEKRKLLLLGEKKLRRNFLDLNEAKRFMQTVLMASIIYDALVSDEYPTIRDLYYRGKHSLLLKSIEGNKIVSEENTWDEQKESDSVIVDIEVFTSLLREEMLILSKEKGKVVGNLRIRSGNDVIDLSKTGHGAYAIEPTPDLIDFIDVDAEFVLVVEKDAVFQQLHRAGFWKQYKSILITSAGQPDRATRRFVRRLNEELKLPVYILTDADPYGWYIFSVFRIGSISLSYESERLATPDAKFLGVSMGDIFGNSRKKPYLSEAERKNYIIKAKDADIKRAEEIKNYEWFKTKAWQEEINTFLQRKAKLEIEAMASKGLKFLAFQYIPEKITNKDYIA
T1 sequence (Q8PUB8 whole entry): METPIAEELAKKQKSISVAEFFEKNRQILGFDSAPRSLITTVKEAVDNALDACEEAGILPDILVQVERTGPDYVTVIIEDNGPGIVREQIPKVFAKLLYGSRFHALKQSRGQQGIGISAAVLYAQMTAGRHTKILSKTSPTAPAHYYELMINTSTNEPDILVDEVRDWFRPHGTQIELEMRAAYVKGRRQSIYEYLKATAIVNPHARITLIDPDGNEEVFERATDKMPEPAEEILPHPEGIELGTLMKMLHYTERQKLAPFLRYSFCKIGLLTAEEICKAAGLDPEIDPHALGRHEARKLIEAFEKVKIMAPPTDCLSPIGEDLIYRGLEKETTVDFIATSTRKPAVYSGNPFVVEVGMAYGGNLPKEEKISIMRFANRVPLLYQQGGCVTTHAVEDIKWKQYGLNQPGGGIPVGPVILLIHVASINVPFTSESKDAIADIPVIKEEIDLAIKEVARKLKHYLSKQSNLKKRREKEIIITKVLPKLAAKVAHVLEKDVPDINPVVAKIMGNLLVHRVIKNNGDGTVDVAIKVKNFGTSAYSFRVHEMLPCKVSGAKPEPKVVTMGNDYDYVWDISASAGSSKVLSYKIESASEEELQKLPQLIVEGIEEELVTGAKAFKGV
T1 sequence (Q8PUB7 whole entry): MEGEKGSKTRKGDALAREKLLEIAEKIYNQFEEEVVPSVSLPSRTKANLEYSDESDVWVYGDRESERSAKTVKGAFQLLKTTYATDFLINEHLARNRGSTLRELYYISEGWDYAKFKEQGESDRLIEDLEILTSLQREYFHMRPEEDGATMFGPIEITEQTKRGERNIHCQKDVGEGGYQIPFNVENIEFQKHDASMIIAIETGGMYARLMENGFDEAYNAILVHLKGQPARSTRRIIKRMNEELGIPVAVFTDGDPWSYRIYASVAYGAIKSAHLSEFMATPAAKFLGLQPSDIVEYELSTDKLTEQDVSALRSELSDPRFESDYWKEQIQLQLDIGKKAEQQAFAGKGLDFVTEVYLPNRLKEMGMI
T3 sequence (P0AES4 whole entry, the tested form may be a part, one chain of several): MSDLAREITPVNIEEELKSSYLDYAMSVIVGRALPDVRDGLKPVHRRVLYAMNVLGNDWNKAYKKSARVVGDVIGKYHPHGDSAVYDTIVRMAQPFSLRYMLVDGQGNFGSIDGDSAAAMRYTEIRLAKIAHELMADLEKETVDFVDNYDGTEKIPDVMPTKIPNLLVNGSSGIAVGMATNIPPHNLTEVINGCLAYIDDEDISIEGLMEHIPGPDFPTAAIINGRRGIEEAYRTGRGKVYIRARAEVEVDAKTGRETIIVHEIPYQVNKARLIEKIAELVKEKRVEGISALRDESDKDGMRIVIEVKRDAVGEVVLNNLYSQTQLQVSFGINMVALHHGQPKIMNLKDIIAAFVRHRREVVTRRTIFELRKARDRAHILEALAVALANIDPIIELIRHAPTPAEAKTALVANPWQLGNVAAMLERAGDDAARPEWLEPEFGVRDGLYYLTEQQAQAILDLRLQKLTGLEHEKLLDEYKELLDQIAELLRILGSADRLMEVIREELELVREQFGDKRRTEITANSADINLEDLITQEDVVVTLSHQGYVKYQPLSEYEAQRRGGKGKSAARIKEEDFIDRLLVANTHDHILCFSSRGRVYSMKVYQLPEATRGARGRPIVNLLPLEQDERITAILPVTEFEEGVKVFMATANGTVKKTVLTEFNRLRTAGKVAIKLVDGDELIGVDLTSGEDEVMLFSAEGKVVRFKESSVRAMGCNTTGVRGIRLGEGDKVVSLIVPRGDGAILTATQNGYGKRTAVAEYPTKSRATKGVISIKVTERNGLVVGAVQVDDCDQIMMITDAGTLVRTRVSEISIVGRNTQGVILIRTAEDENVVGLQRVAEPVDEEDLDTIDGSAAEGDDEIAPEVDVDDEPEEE

## CCCCCCc1ccc(O)cc1O [Hexylresorcinol]
[1]; 40 µM
  Average hypocotyl length: considerably reduced
[1]; 40 µM, three-week-old plants
  Plants able to develop into a rosette: seven of the 32 plants
[1]; 50 µM, 10 mm in the absence of drug, 5 days in the dark
  Average length of seedlings (hypocotyl): approximately 1 mm
[1]; 80 µM
  Seed germination: germination was reduced
[1]; 100 µM
  Seed germination: completely preventing seed germination; also recorded: no seeds germinated
[1]; up to 50 µM
  Number of seeds germinated: remained constant
[2]
  Effect on M. mazei topo VI ATPase activity: appeared to increase the rate of ATP hydrolysis
[2]; listed as hexylresorcinol
  Effect on M. mazei topo VI ATPase activity: appears to stimulate hydrolysis of ATP
[3]
  Inhibition in gel-based relaxation assay (hit validation): validated as hits
  pIC50: 4.52
[4]
  Hypocotyl cell size, seedlings with dwarf morphology: ~50 µm
[5]
  Inhibition of S. shibatae topo VI: did not display any inhibition

## Cc1ccc(C(=O)Nc2ccc(S(=O)(=O)O)c3cc(S(=O)(=O)O)cc(S(=O)(=O)O)c23)cc1NC(=O)c1cccc(NC(=O)Nc2cccc(C(=O)Nc3cc(C(=O)Nc4ccc(S(=O)(=O)O)c5cc(S(=O)(=O)O)cc(S(=O)(=O)O)c45)ccc3C)c2)c1 [Suramin]
[6]
  Effect on gel shift of 147 bp DNA by DNA gyrase: abolishes this shift
[7]
  Protection of DNA from Ca2+-induced cleavage by gyrase: completely protect DNA from cleavage
[8]
  Inhibition in gel-based supercoiling assay (hit validation): displayed inhibition
[8]; gel supercoiling assay, 1 unit of gyrase (12 nM), read-out: Approx. IC50 against E. coli DNA gyrase
  pIC50: 4.10
[8]; summary of this study's mechanistic tests
  Mechanism (DNA gyrase): Blocks DNA binding
[9]
  Inhibition of growth / antimicrobial activity: no antimicrobial activity
[10]
  Effect on binding of M. mazei topo VI to DNA: appeared to prevent the binding of topo VI to DNA; also recorded: appeared to prevent G-segment binding
[3]
  Inhibition in gel-based relaxation assay (hit validation): validated as hits
  pIC50: 4.52
[3]; summary of mechanistic tests with M. mazei and S. shibatae topo VI
  Mechanism (Topo VI): Blocks DNA binding
[11]
  Induction of gyrase-mediated DNA cleavage: did not display any ability to induce cleavage
[12]
  Inhibition of growth / antimicrobial activity: no antimicrobial activity
[5]
  Inhibition of S. shibatae topo VI: did not display any inhibition; also recorded: did not inhibit
[13]
  Antimicrobial activity: no antimicrobial activity
